In patent US11718628B2, “SREBP inhibitors comprising a 6-membered central ring” (Capulus Therapeutics, LLC, priority 2018, dated 2023):
Like-named read-outs stand apart in the source and are kept apart here.

Columns and labels:
[1] = Plasma and liver compound levels in mice after oral administration; type: in vivo; details: 30 mpk; for concentration at 6 h / concentration at 24 h: mouse, 30 mg/kg
Description: (§1) The pharmacodynamic properties of selected compounds were evaluated in mice. The animals were housed in cages with clean bedding, and maintained and monitored for good health in accordance with Test Facility SOPs and at the discretion of the laboratory animal veterinarian. Certified rodent diet was provided. Food and water was available ad libitum. Environmental controls for the animal room were set to maintain a temperature of 22° C. to 25° C., humidity of 40-70% RH, and a 12-hour light/[…]. Normal healthy animals certified by the attending veterinarian were selected and acclimatized for minimum three days prior to initiation of study. Animals were identified with body markings.
(§2) Aliquots of the compounds being evaluated were weighed and triturated with 0.5% methylcellulose (with the addition of 5% N-methyl pyrrolidone when required to remove clumping, as for Z-806) to an appropriate dose concentration. Vials were labeled with the information about study number, test item, concentration and date of preparation. A description of appearance of formulation was recorded (e.g., color, turbidity, etc.). The composition of formulation vehicle was recorded. An aliquot of each dose solution was taken before the dosing began and after dosing was finished, and stored at approximately −20° C. or below for subsequent analysis. The animals were dosed orally through oral gavage needle, and time of dosing was recorded.
After dosing, the mice were anesthetized using gaseous anesthesia. Blood samples were collected through a capillary, guided in retro-orbital plexus, at 6 h or at 24 h. Approximately 100 uL of blood was collected from each mouse, in pre-labeled tubes. The collected blood was stored on ice prior to centrifugation. Blood samples were then centrifuged within 1 hour of collection to separate plasma. Centrifugation was conducted at 2500×g for 15 minutes at 4° C. The plasma was separated and transferred to pre-labeled micro-centrifuge tubes and promptly frozen at −80±10° C. until bioanalysis.
(§3) Liver Collection at 6 h or 24 h: Immediately after blood withdrawal for pharmacokinetic evaluation (at 6 or at 24 h), liver tissue was collected without perfusion. Animals were euthanized using carbon dioxide gas in a CO2 chamber. The whole blood was drained by cutting the both side jugular vein and abdominal aorta. The liver was separated out. All the liver samples were divided in two parts. The first part (200 mg approx.) was snap frozen using liquid nitrogen as soon as possible. These samples were immediately transferred to −80° C. for storage. The remaining part was weighed and used for bioanalysis.

[2] = system: liver gene expression (ACACA, ACLY, FASN, LSS, PNPLA3); experiment: Liver gene expression in mice after oral administration; type: in vivo; details: 30 mpk, vs vehicle
Description: as §1, §2, §3
RNA Processing and Gene Expression Analysis: Liver Tissue RNA was harvested with the RNEasy kit and 20-100 ng used to synthesize cDNA with random primers following the manufacturer's protocol. Quantitative PCR was performed on 1 pg to 100 ng cDNA for the following genes: ACACA, ACLY, FASN, LSS, PNPLA3. Gene expression levels were determined using ΔΔCT method comparing treated to vehicle treated samples as a baseline, and fold change calculated. The average value for all 5 genes above was averaged and termed to Total Fold Change The results from this evaluation are presented in Table 8.

[3] = In vivo pharmacokinetic properties in rats (IV and PO); design: species or system male Sprague Dawley rats
Description: (§4) The in vivo pharmacokinetic properties of compounds by both intravenous and oral administration were evaluated in male Sprague Dawley rats or C57BL/6J mice.
(§5) Animals were housed in cages with clean bedding. Certified rodent diet was provided. Water was available ad libitum. Environmental controls for the animal room were set to maintain a temperature of 22° C. to 25° C., humidity of 40-70% RH, and a 12-hour light/12-hour dark cycle. Normal healthy animals certified by the attending veterinarian were selected and acclimatized for minimum three days prior to initiation of study.
Surgical Procedure for Jugular Vein Cannulation of Rats: Rats were anaesthetized with a single dose of ketamine 50 mg/kg i.p.+xylazine 6 mg/kg i.p. The right jugular vein was exposed, a loose ligature was placed caudally, and the cranial end of vein was ligated. A small incision was made between the ligatures into which the catheter (polyethylene 50 tubing of internal diameter 0.58 mm and outer diameter 0.96 mm) was inserted. The catheter was secured in place by tying the loose ligature around the catheterized vessel. A small incision was made in the scapular region to serve as the exit site of the catheter. The catheter was subcutaneously tunneled and exteriorized through scapular incision. A stay suture was placed in the scapular area. Patency was tested, and catheter was filled with a locking solution (heparinized saline) and sealed with a stainless steel plug. The incision was then sutured with sterile suturing material. Anti-septic solution was applied to the sutured site and animal was placed back in the home cage.
(§6) To evaluate pharmacokinetic properties of intravenous delivery, male Sprague Dawley rats were administered 2.00 mg compound/kg animal weight through the tail vein. The concentration of the compound in the plasma of the animals was evaluated at 0.083, 0.25, 0.5, 1, 2, 4, 8, 12 and 24 hr by taking blood samples from the cannulated jugular vein. For the C5Bl/6J mice, blood samples were collected through a capillary, guided in retro-orbital plexus.
To evaluate pharmacokinetic properties of oral delivery, rats (male Sprague Dawley rats) or mice (C5Bl/6J) were administered 10 mg compound/kg animal weight by mouth. The concentration of compound in the plasma of the animals was evaluated at 0.25, 0.5, 1, 2, 4, 6, 8, 12 and 24 hr by taking blood samples from the cannulated jugular vein (rats) or through a capillary, guided in retro-orbital plexus (mice).

[4] = Log D by octanol/aqueous buffer partitioning; type: physicochemical; details: pH 7.4, 1-octanol/buffer
Description: The Log D of selected compounds was evaluated by octanol/aqueous buffer partitioning. 500 μL of organic phase (1-octanol) was added to each well of a 2 mL deep well plate, followed by 500 μL of buffer and 15 μL of test compound in DMSO (0.15 mM). The plate was vortexed for 10 seconds and incubated at room temperature for 1 hr on a plate shaker at 200 rpm. After incubation, the samples were allowed to equilibrate for 20 min and then centrifuged at 4000 rpm for 30 min for complete phase separation. The distribution of test compound in buffer and octanol phase was analyzed by HPLC-UV. Log D=Log (Area of Octanol/Area of Buffer).

[5] = In vivo pharmacokinetic properties in mice (IV and PO); design: species or system C57BL/6J mice; details: mouse, in vivo; for Intravenous Delivery (IV) AUC0-last / Intravenous Delivery (IV) CL / Intravenous Delivery (IV) T1/2 / Intravenous Delivery (IV) Vd: 2 mg/kg; for Oral Administration (PO) AUC0-last / Oral Administration (PO) T1/2 / Oral Administration (PO) Tmax: 10 mg/kg
Description: as §4, §5, §6
[…] The concentration of compound in the plasma of the animals was evaluated at 0.25, 0.5, 1, 2, 4, 6, 8, 12 and 24 hr by taking blood samples from the cannulated jugular vein (rats) or through a capillary, guided in retro-orbital plexus (mice).

Row | SMILES | Liver ng/mg (6 h) [1] [ng/mg] | Plasma ng/mL (6 h) [1] [ng/mL] | Liver ng/mg 24 h [1] [ng/mg] | Plasma ng/mL (24 h) [1] [ng/mL] | Total Gene FC Time (6 h) [2] | Total Gene FC Time (24 h) [2] | Intravenous Delivery (IV) CL ([3]; IV, 2 mg/kg) [mL/min/kg] | Intravenous Delivery (IV) T1/2 ([3]; IV, 2 mg/kg) [h] | Intravenous Delivery (IV) Vd ([3]; IV, 2 mg/kg) [L/kg] | % F (Bioavailability of oral delivery) ([3]; PO 10 mg/kg vs IV 2 mg/kg) [%] | Oral Administration (PO) AUC0-last ([3]; PO, 10 mg/kg) | Oral Administration (PO) T1/2 ([3]; PO, 10 mg/kg) [h] | Oral Administration (PO) Tmax ([3]; PO, 10 mg/kg) [h] | LogD [4] | % F (Bioavailability of oral delivery) [5] [%] | Intravenous Delivery (IV) AUC0-last [5] [ng·h/mL] | Intravenous Delivery (IV) CL [5] [mL/min/kg] | Intravenous Delivery (IV) T1/2 [5] [h] | Intravenous Delivery (IV) Vd [5] [L/kg] | Oral Administration (PO) AUC0-last [5] [ng·h/mL] | further results
1 | CC(C)(C)c1cc(-c2cccc(-c3ccc(C(=O)N4CCC(O)CC4)cc3Cl)c2)ccn1 [Compound Z-744] | >1000 | 100 to 1000 | >1000 | 100 to 1000 | ++ (0.51-0.7509 = ++) | + (>0.751 = +) | 13.1 | 1.91 | 2.16 | 8.6 | 1058 | 2.35 | 2 | 4.12 |  |  |  |  |  |  | 
2 | CC(C)OC(=O)Nc1ccc(-c2cncc(-c3ccnc(C(C)(C)C)c3)c2)c(Cl)c1 [Compound Z-774] | >1000 | 100 to 1000 | >1000 | 100 to 1000 | ++ (0.51-0.7509 = ++) | +++ (0-0.509 = +++) | 15.7 | 5.92 | 7.97 | 5.8 | 604 | 3.74 | 0.333 | 4.12 | 16 | 1780 | 18.5 | 5.31 | 8.51 | 1380 | Oral Administration (PO) T1/2 [5]: 6.79 h; Oral Administration (PO) Tmax [5]: 0.5 h
3 | CC1(O)CCN(C(=O)c2ccc(-c3cncc(-c4ccnc(C(C)(C)C)c4)c3)c(Cl)c2)CC1 [Compound Z-780] | >1000 | 100 to 1000 | >100 | <100 | + (>0.751 = +) | ++ (0.51-0.7509 = ++) | 16.7 | 1.14 | 1.64 | 29 | 2989 | 0.92 | 0.75 | 3.76 | 33 | 913 | 36.3 | 2.02 | 6.33 | 1510 | Oral Administration (PO) T1/2 [5]: 1.24 h; Oral Administration (PO) Tmax [5]: 0.25 h
4 | CC(C)(O)c1cc(-c2cncc(-c3ccc(C(=O)N4CCC(O)CC4)cc3Cl)c2)ccn1 [Compound Z-796, (3-chloro-4-(2′-(2-hydroxypropan-2-yl)-[3,4′-bipyridin]-5-yl)phenyl)(4-hydroxypiperidin-1-yl)methanone] |  |  |  |  | + (>0.751 = +) | + (>0.751 = +) |  |  |  |  |  |  |  |  |  |  |  |  |  |  | concentration at 6 h ([1]; liver, read-out: Liver ng/mg (6 h)): > 1e+06 ng/g; concentration at 24 h ([1]; liver, read-out: Liver ng/mg 24 h): < 100000 ng/g; concentration at 6 h ([1]; plasma, read-out: Plasma ng/mL (6 h)): 100 to 1000 ng/mL; concentration at 24 h ([1]; plasma, read-out: Plasma ng/mL (24 h)): < 100 ng/mL; AUC(0-t) ([3]; male, Sprague Dawley, rat, plasma, 10 mg/kg, heading: Oral Administration AUC0-last, PO, 10 mg/kg): 7140 ng·h/mL; AUC(0-t) ([3]; male, Sprague Dawley, rat, plasma, IV, 2 mg/kg, read-out: Intravenous Delivery (IV) AUC0-last): 3800 ng·h/mL; clearance ([3]; male, Sprague Dawley, rat, plasma, IV, 2 mg/kg, read-out: Intravenous Delivery (IV) CL): 8.78 mL/min/kg; half-life ([3]; male, Sprague Dawley, rat, plasma, IV, 2 mg/kg, read-out: Intravenous Delivery (IV) T1/2 (converted)): 3.08 h; Vd ([3]; male, Sprague Dawley, rat, plasma, IV, 2 mg/kg, read-out: Intravenous Delivery (IV) Vd): 2.37 L/kg; bioavailability ([3]; male, Sprague Dawley, rat, plasma, PO 10 mg/kg vs IV 2 mg/kg, read-out: % F (Bioavailability of oral delivery)): 38%; half-life ([3]; male, Sprague Dawley, rat, plasma, PO, 10 mg/kg, read-out: Oral Administration (PO) T1/2 (converted)): 3.22 h; Tmax ([3]; male, Sprague Dawley, rat, plasma, PO, 10 mg/kg, read-out: Oral Administration (PO) Tmax): 0.667 h; LogD ([4]; 1-octanol/aqueous buffer, read-out: LogD): 2.08
5 | Cc1cc(C(=O)N2CCC(O)CC2)ccc1-c1cncc(-c2ccnc(C(C)(C)C)c2)c1 [Compound Z-817] | 100 to 1000 | <100 | <100 | <100 | + (>0.751 = +) | + (>0.751 = +) | 5.24 | 3.11 | 1.41 | 13 | 3992 | 2.56 | 0.33 | 3.36 |  |  |  |  |  |  | 
